Several values for one entry are separate records, joined by “and”; a condition that tells them apart may be missing. Equal values may be shown once.
Columns and labels:
Format in all cases: functional, organism-based
Mus musculus [1] = test: Activity of perorally administered compound at a dose of 20 mg/kg for 10 days against plasma glucose in diabetic mice; set-up: dose 20 mg/kg
Mus musculus [2] = test: Activity of perorally administered compound at a dose of 20 mg/kg for 4 days against plasma glucose in obese mice; set-up: dose 20 mg/kg
Mus musculus [3] = test: Activity of perorally administered compound at a dose of 75 mg/kg for 4 days against plasma glucose in obese mice; set-up: dose 75 mg/kg
Mus musculus [4] = test: Activity of perorally administered compound at a dose of 20 mg/kg for 10 days against plasma insulin in diabetic mice; set-up: dose 20 mg/kg
Mus musculus [5] = test: Activity of perorally administered compound at a dose of 20 mg/kg for 4 days against plasma insulin in obese mice; set-up: dose 20 mg/kg
Mus musculus [6] = test: Activity of perorally administered compound at a dose of 75 mg/kg for 4 days against plasma insulin in diabetic mice; set-up: dose 75 mg/kg
Mus musculus [7] = test: Activity of perorally administered compound at a dose of 75 mg/kg for 4 days against plasma glucose in diabetic mice; set-up: dose 75 mg/kg

| SMILES | Plasma glucose (Mus musculus [1]) | Plasma glucose (Mus musculus [2]) | Plasma glucose (Mus musculus [3]) | Plasma insulin (Mus musculus [4]) | Plasma insulin (Mus musculus [5]) | Plasma insulin (Mus musculus [6]) | Plasma glucose (Mus musculus [7]) |
| --- | --- | --- | --- | --- | --- | --- | --- |
| O=C(Nc1ccc(Cc2nn[nH]n2)cc1)C(F)(F)C(F)(F)C(F)(F)F | 307 mg/dL | 213 mg/dL | 100 mg/dL | 19 µU/mL |  |  |  |
| CN(C(=O)C(F)(F)C(F)(F)C(F)(F)C(F)(F)C(F)(F)C(F)(F)C(F)(F)F)c1ccc(Cc2nnn(C)n2)cc1 |  | 128 mg/dL |  |  | 205 µU/mL |  |  |
| O=C(Nc1ccc(Cc2nnn[nH]2)cc1)C(F)(F)C(F)(F)C(F)(F)C(F)(F)C(F)(F)C(F)(F)C(F)(F)C(F)(F)C(F)(F)F |  | 133 mg/dL | 144 mg/dL |  |  |  |  |
| O=C(Nc1ccc(Cc2nnn[nH]2)cc1)C(F)(F)C(F)(F)C(F)(F)C(F)(F)F |  | 207 mg/dL | 170 mg/dL |  |  |  |  |
| CN(C(=O)C(F)(F)C(F)(F)C(F)(F)C(F)(F)C(F)(F)C(F)(F)C(F)(F)F)c1ccc(Cc2nnnn2C)cc1 |  | 119 mg/dL |  |  | 204 µU/mL |  |  |
| O=C(Nc1ccc(Cc2nnn[nH]2)cc1)C(F)(F)F |  | 273 mg/dL | 138 mg/dL |  |  |  |  |
| CC1(COc2ccc(CC3SC(=O)NC3=O)cc2)CCCCC1 (stereo not drawn) | 320 mg/dL | 191 mg/dL | 107 mg/dL | 20 µU/mL |  | 25 µU/mL | 348 mg/dL |
| O=C(Nc1ccc(Cc2nnnn2Cc2ccccc2)cc1)C(F)(F)C(F)(F)C(F)(F)C(F)(F)C(F)(F)C(F)(F)C(F)(F)F |  | 152 mg/dL |  |  | 249 µU/mL |  |  |
| O=C(Nc1ccc(Cc2nnn(Cc3ccccc3)n2)cc1)C(F)(F)C(F)(F)C(F)(F)C(F)(F)C(F)(F)C(F)(F)C(F)(F)F |  | 119 mg/dL |  |  | 204 µU/mL |  |  |
| O=C(Nc1ccc(Cc2nnn[nH]2)cc1)C(F)(F)C(F)(F)C(F)(F)C(F)(F)C(F)(F)C(F)(F)C(F)(F)C(F)(F)C(F)(F)C(F)F |  | 123 mg/dL | 118 mg/dL |  |  |  |  |
| O=C(Nc1ccc(Cc2nnn[nH]2)cc1)C(F)(F)C(F)(F)C(F)(F)C(F)(F)C(F)(F)C(F)(F)F |  | 231 mg/dL | 162 mg/dL |  |  |  |  |
| O=C(Nc1ccc(Cc2nnn[nH]2)cc1)C(F)(F)C(F)(F)C(F)(F)C(F)(F)C(F)(F)C(F)(F)C(F)(F)C(F)(F)F |  | 128 mg/dL | 106 mg/dL |  |  |  |  |
| O=C(Nc1ccc(Cc2nnn[nH]2)cc1)C(F)(F)C(F)(F)C(F)(F)C(F)(F)C(F)(F)C(F)(F)C(F)(F)C(F)F |  | 108 mg/dL | 93 mg/dL |  |  | 34 µU/mL | 124 mg/dL |
| O=C(Nc1ccc(Cc2nnn[nH]2)cc1)C(F)(F)C(F)(F)F |  | 198 mg/dL | 120 mg/dL |  |  |  |  |
| O=C(Nc1ccc(Cc2nn[nH]n2)cc1)C(F)(F)C(F)(F)C(F)(F)C(F)(F)C(F)(F)C(F)(F)C(F)(F)F | 256 mg/dL | 111 mg/dL and 119 mg/dL | 87 mg/dL | 14 µU/mL | 140 µU/mL | 32 µU/mL | 163 mg/dL |

Reference: ChEMBL document CHEMBL1124312, “Perfluoro-N-[4-(1H-tetrazol-5-ylmethyl)phenyl]alkanamides. A new class of oral antidiabetic agents” (J Med Chem, 1989)
